One experiment relates to bovine tubulin. Put plainly: In vitro tubulin polymerization assay (turbidity at 340 nm). Format: biochemical. The settings on record: 10 μM compound, 30 minute data point, vs 1% DMSO control. In short, it runs like this: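 Percent inhibition derives from turbidity (340 nm) at 30 min relative to 1% DMSO controls, read every minute at 37° C. Polymerization mix: 3 mg/ml bovine tubulin, <3% MAPs, in PIPES pH 7 G-PEM with 1 mM GTP, 1 mM MgCl2, 5% glycerol; enhancers also detectable.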

Experiment [1] relates to A431, human epidermoid carcinoma cells. Put plainly: Cell cycle analysis (FACS), mitotic arrest in G2/M. It counts as cell-based. The following applies: Homo sapiens, A-431, 24 h, read-out: FACS Assay: concentration required to achieve inhibition in FACS assay. The method in brief:
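A431 cells, 500,000/well at treatment, exposed to compounds at 0.01–1 μM final (0.1% DMSO) for 24 h. Ethanol-fixed cells RNase-treated (1 μg/ml, 37° C., 15 min), stained with propidium iodide (50 μg/ml, 30 min, RT). DNA ploidy by flow cytometry; mitotic arrest scored as G2/M accumulation.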
In general terms: Flow cytometry measures light scatter and fluorescence of single cells or particles in a stream.

In experiment [2] the test system is A431 human cancer cell line. The experiment is described as follows: Sulphorhodamine B (SRB) growth inhibition assay. The settings on record: A-431, A431 cells, 48 hours, read-out: SRB Assay: μM required to inhibit tumor cell growth by 50% (GI50). It counts as cell-based. On the procedure: The in vitro growth inhibition activity of the compounds was determined by the Sulphorhodamine B assay. (Skehan P, Storeng R, Scudiero D, Monks A, McMahon J, Vistica D, Warren J T, Bokesch H, Kenney S, Boyd M R. New colorimetric cytotoxicity assay for anticancer-drug screening. J Natl Cancer Inst 82, 1107-1112, 1990). Sulphorhodamine B binds to basic amino acids and stains proteins which can be eluted and detected spectrophotometically by measuring absorbance at 515 nm. The absorbance was indicative of the total protein content of the cells fixed to the walls of the plate well at a given time by trichloroacetic acid, which is a measure of the viable cell concentration.
The in vitro growth inhibition activity of the compounds was determined using a Sulphorhodamine B assay. See, Skehan et al., “New colorimetric cytotoxicity assay for anticancer-drug screening,” J. Natl. Cancer Inst., 82, 1107-1112, (1990). Sulphorhodamine B binds to basic amino acids and stains proteins which can be eluted and detected spectrophotometically by measuring absorbance at 515 nm. The absorbance indicates the total protein content of the cells fixed to the walls of the plate well at a given time by trichloroacetic acid, which is a measure of the viable cell concentration.
The reagents used in the assay can be purchased from commercial sources and include Sulphorhodamine B 0.4% (w/v) in 1% (v/v) acetic acid (Sigma Cat#S-1402); trichloroacetic acid 50% (w/v) in deionized water, working solution (Sigma Cat#T-9159); and trizma base (Tris) 10 mM working solution, pH 7.5 (Sigma Cat#T-7693).
The procedure was cared out over four days. In Day 1, the cells were seeded in a seed 10,000 cells/100 μL/well in 96 well plate in duplicates as per template. Also, seed cells in extra plate for time zero (To plate). Thereafter, the cells were incubated for 24 hours at 37° C. with 5% CO2.
On Day 2, the test compound was added to the cells at five log doses from 100 μM to 0.01 μM (Volume of addition=100 μL in 1% DMSO for all compound concentrations, Control treatment=1% DMSO).
The compounds were prepared by weighing the test compounds in 1.5 ml eppendorf tubes and calculating the volume of DMSO to be added to bring the concentration of the compound to 20 mM. Thereafter, a 20 mM stock was made and diluted by four 10 fold dilutions in DMSO to get 2, 0.2, 0.02 and 0.002 mM solutions. Each solution was diluted 100 times (10 μL to 1 ml medium) and a further addition to the culture plate (100 μL) to half the concentration of cells was made. The final well concentration for 20 mM stock was 100 μM and similarly with other test concentrations.
The cells were incubated for 48 hours at 37° C. with 5% CO2 and terminated by adding 50 μL of 50% cold trichloroacetic acid (10% to final). Thereafter, the cells were incubated for one hour at 4° C.
On Day 4, the cells were fixed to the wells by the addition of 50 μL of 50% cold trichloroacetic acid (10% to final) and incubated for 1 hour at 4° C. The supernatant was discarded by force inverting the plate into the sink followed by washing thrice with tap water and the plates are then air-dried. 100 μL SRB (0.4% in 1% acetic acid) was added to each well and the plates were incubated for 10 minutes at room temperature. Unbound dye was removed by force inverting the plate into the sink and washing thrice with 1% acetic acid. Thereafter, the plates were allowed to air dry.
Bound SRB was solubilized with 100 μL of 10 mM Tris, pH 7.4 and the absorbance was measured at a wavelength of 515 nm.
A sample set of calculations was performed as follows. The percentage growth was calculated by T-To/C-To X 100 if T>To and T-To/To X 100 if T<To, wherein T is Test OD (with compound), C is Control OD, To is Time Zero OD (cell growth at the time of drug addition). […]

Structures are written as SMILES.

Regarding `CN(C)c1ccc(Nc2nnc(-c3cccnc3NCc3ccc4c(c3)OCO4)[nH]2)cc1` [Compound 15, Benzo[1,3]dioxol-5-ylmethyl-{3-[5-(4-dimethylamino-phenylamino)-4H-[1,2,4]triazol-3-yl]-pyridin-2-yl}-amine], the “Tubulin Assay: percent inhibition at 10 μM based on 30 minute data” value (shortened to “Tubulin Assay: percent inhibition”) in the experiment with bovine tubulin came out at 20%. In experiment [1], the minimal effective concentration came to 100 µM. Also, the GI50 in experiment [2] turned out to be 0.2 µM.

`COc1ccc(Nc2nnc(-c3cccnc3NCc3ccc4c(c3)OCO4)[nH]2)c(OC)c1` [Compound 17, Benzo[1,3]dioxol-5-ylmethyl-{3-[5-(2,4-dimethoxy-phenylamino)-4H-[1,2,4]triazol-3-yl]-pyridin-2-yl}-amine]: in the experiment with bovine tubulin, the “Tubulin Assay: percent inhibition” value came out at 80%. In addition, the minimal effective concentration in experiment [1] is 10 µM. Besides, the concentration for 50% growth inhibition (GI50) in experiment [2] is 4 µM.

Take `COc1cccc(Nc2nnc(-c3cccnc3Nc3ccc4cn[nH]c4c3)[nH]2)c1` [Compound 18, (1H-Indazol-6-yl)-{3-[5-(3-methoxy-phenylamino)-4H-[1,2,4]triazol-3-yl]-pyridin-2-yl}-amine]: the “Tubulin Assay: percent inhibition” value in the experiment with bovine tubulin amounted to 70%. Besides, the minimal effective concentration in experiment [1] turned out to be 1 µM. In experiment [2], the concentration for 50% growth inhibition (GI50) was determined as 1.5 µM.

Take `COc1ccc(OC)c(Nc2nnc(-c3cccnc3Nc3ccc4cn[nH]c4c3)[nH]2)c1` [Compound 20, {3-[5-(2,5-Dimethoxy-phenylamino)-4H-[1,2,4]triazol-3-yl]-pyridin-2-yl}-(1H-indazol-6-yl)-amine]: in the experiment on bovine tubulin, the “Tubulin Assay: percent inhibition” value was 44%. Further, the minimal effective concentration in experiment [1] turned out to be 10 µM. For the same compound, in experiment [2], the GI50 came to 0.9 µM.

Take `CN(C)c1ccc(Nc2nnc(-c3cccnc3Nc3ccc4cn[nH]c4c3)[nH]2)cc1` [Compound 21, (1H-Indazol-6-yl)-{3-[5-(4-dimethylamino-phenylamino)-4H-[1,2,4]triazol-3-yl]-pyridin-2-yl}-amine]: the “Tubulin Assay: percent inhibition” value in the experiment with bovine tubulin is on record as 24%. In experiment [1], the minimal effective concentration came to 100 µM. The 50% growth inhibitory concentration (GI50) in experiment [2] came out at 40 µM.

For the compound `COc1cccc(Nc2nnc(-c3cccnc3NCc3cccnc3)[nH]2)c1` [Compound 25, {3-[5-(3-Methoxy-phenylamino)-4H-[1,2,4]triazol-3-yl]-pyridin-2-yl}-pyridin-3-ylmethyl-amine], in the experiment on bovine tubulin, the “Tubulin Assay: percent inhibition” value came to 77%. For the same compound, the minimal effective concentration in experiment [1] is 1 µM. The GI50 in experiment [2] came to 0.5 µM.

As for `COc1cc(Nc2ncccc2-c2nnc(Nc3ccc4c(c3)OCO4)[nH]2)cc(OC)c1` [Compound 30, {3-[5-(Benzo[1,3]dioxol-5-ylamino)-4H-[1,2,4]triazol-3-yl]-pyridin-2-yl}-(3,5-dimethoxy-phenyl)-amine], the “Tubulin Assay: percent inhibition” value in the experiment on bovine tubulin came out at 87%. Also, the minimal effective concentration in experiment [1] amounted to 0.1 µM. The concentration for 50% growth inhibition (GI50) in experiment [2] came out at 0.01 µM.

Turning to `c1cncc(CNc2ncccc2-c2nnc(Nc3ccc4c(c3)OCO4)[nH]2)c1` [Compound 31, {3-[5-(Benzo[1,3]dioxol-5-ylamino)-4H-[1,2,4]triazol-3-yl]-pyridin-2-yl}-pyridin-3-ylmethyl-amine], in the experiment on bovine tubulin, the “Tubulin Assay: percent inhibition” value worked out at 49%. Moreover, the minimal effective concentration in experiment [1] worked out at 1 µM. The GI50 in experiment [2] came out at 0.25 µM.

As to `COc1ccc(Nc2nnc(-c3cccnc3NCc3ccc4c(c3)OCO4)[nH]2)cc1` [Compound 54, Benzo[1,3]dioxol-5-ylmethyl-{3-[5-(4-methoxy-phenylamino)-4H-[1,2,4]triazol-3-yl]-pyridin-2-yl}-amine], the “Tubulin Assay: percent inhibition” value with bovine tubulin came out at 38%. In experiment [1], the minimal effective concentration amounted to 10 µM. The 50% growth inhibitory concentration (GI50) in experiment [2] is 7.5 µM.

For `CS(=O)(=O)c1ccc(-c2nnc(-c3cccnc3NCc3ccc4c(c3)OCO4)[nH]2)cc1` [Compound 77, Benzo[1,3]dioxol-5-ylmethyl-{3-[5-(4-methanesulfonyl-phenyl)-4H-[1,2,4]triazol-3-yl]-pyridin-2-yl}-amine], in the experiment with bovine tubulin, the “Tubulin Assay: percent inhibition” value amounted to 28%. In addition, the minimal effective concentration in experiment [1] worked out at 10 µM. For the same compound, the 50% growth inhibitory concentration (GI50) in experiment [2] came out at 4.5 µM.

On to `COc1ccc(-c2nnc(-c3cccnc3NCc3ccc4c(c3)OCO4)[nH]2)cc1OC` [Compound 78, Benzo[1,3]dioxol-5-ylmethyl-{3-[5-(3,4-dimethoxy-phenyl)-4H-[1,2,4]triazol-3-yl]-pyridin-2-yl}-amine], for which the “Tubulin Assay: percent inhibition” value in the experiment with bovine tubulin worked out at 55%. Besides, the minimal effective concentration in experiment [1] amounted to 1 µM. For the same compound, in experiment [2], the concentration for 50% growth inhibition (GI50) worked out at 3 µM.

Consider `COc1cccc(-c2nnc(-c3cccnc3NCc3cccnc3)[nH]2)c1` [Compound 85, {3-[5-(3-Methoxy-phenyl)-4H-[1,2,4]triazol-3-yl]-pyridin-2-yl}-pyridin-3-ylmethyl-amine], for which the “Tubulin Assay: percent inhibition” value in the experiment on bovine tubulin amounted to 61%. Also, the minimal effective concentration in experiment [1] is 1 µM. Besides, the GI50 in experiment [2] was 8 µM.

As to `COc1ccc(-c2nnc(-c3cccnc3NCc3cccnc3)[nH]2)cc1OC` [Compound 88, {3-[5-(3,4-Dimethoxy-phenyl)-4H-[1,2,4]triazol-3-yl]-pyridin-2-yl}-pyridin-3-ylmethyl-amine], the “Tubulin Assay: percent inhibition” value in the experiment on bovine tubulin is 29%. For the same compound, the minimal effective concentration in experiment [1] was found to be 10 µM. Besides, the 50% growth inhibitory concentration (GI50) in experiment [2] stood at 1.2 µM.

As for `COc1cccc(Nc2nnc(-c3ccccc3NCc3ccncc3)[nH]2)c1` [Compound 115, (3-Methoxy-phenyl)-(5-{2-[(pyridin-4-ylmethyl)-amino]-phenyl}-4H-[1,2,4]triazol-3-yl)-amine], the “Tubulin Assay: percent inhibition” value in the experiment on bovine tubulin is given as 79%. Moreover, the minimal effective concentration in experiment [1] came out at 1 µM. For the same compound, in experiment [2], the GI50 was determined as 1.5 µM.

`CS(=O)(=O)c1ccc(-c2nnc(-c3ccccc3NCc3ccncc3)[nH]2)cc1` [Compound 129]: the “Tubulin Assay: percent inhibition” value with bovine tubulin amounted to 84%. Besides, the minimal effective concentration in experiment [1] amounted to 0.1 µM. Further, in experiment [2], the concentration for 50% growth inhibition (GI50) was found to be 0.025 µM.

Take `C#Cc1ccc(-c2nnc(-c3ccccc3NCc3ccncc3)[nH]2)cc1` [Compound 131, {2-[5-(4-Ethynyl-phenyl)-4H-[1,2,4]triazol-3-yl]-phenyl}-pyridin-4-ylmethyl-amine]: the “Tubulin Assay: percent inhibition” value in the experiment with bovine tubulin is 46%. Further, the minimal effective concentration in experiment [1] stood at 0.1 µM. In addition, the GI50 in experiment [2] is 0.06 µM.

As for `COc1cccc(Nc2nnc(-c3cccnc3Nc3cc(OC)cc(OC)c3)o2)c1` [Compound 176, (3,5-Dimethoxy-phenyl)-{3-[5-(3-methoxy-phenylamino)-[1,3,4]oxadiazol-2-yl]-pyridin-2-yl}-amine], the “Tubulin Assay: percent inhibition” value with bovine tubulin is 27%. In addition, in experiment [1], the minimal effective concentration was 10 µM. The GI50 in experiment [2] came to 40 µM.

What is called GI50 is the concentration at which growth is held to half of that of the control.

The record behind these values is US20090048301A1 (IMCLONE SYSTEMS INCORPORATED, priority 2003, published 2009).
